Data on 50 compounds can be found in PubChem BioAssay AID743371 (Vanderbilt Specialized Chemistry Center, 2014).

Active and inactive are the calls of the source. No rule for the calls is given here.

For the experiment, the target named is D(4) dopamine receptor (Homo sapiens) (UniProt P21917). The experiment in a line: DRD4 antagonism, single-point inhibition (AID 743371). To be noted: D4 receptor antagonist assay; at 10 µM; active compounds read high.
On to `Fc1ccc(CN2CCOC(CCc3ccccc3)C2)cc1` (stereo not given), for which the inhibition (in general, the relative decrease from the control value, in per cent) is 88%. The value for `O=S(=O)(c1cccc(F)c1)N1CCOC(CCc2ccccc2)C1` (stereo not given) was 13% (inactive); that for `O=C(c1ccc2ccccc2n1)N1CCOC(CCc2ccccc2)C1` (stereo not given) was -1% (inactive); that for `c1ccc(CCC2CN(Cc3ccccn3)CCO2)cc1` (stereo not given) was 23% (inactive). The value for `Cc1cc(C)c(C(=O)N2CCOC(CCc3ccccc3)C2)c(C)c1` (stereo not given) was -8% (inactive); that for `COc1ccc(CN2CCO[C@@H](CCc3ccccc3)C2)cc1` was 44% (inactive); that for `O=C(c1ccno1)N1CCOC(CCc2ccccc2)C1` (stereo not given) was -14% (inactive). For `O=C(Nc1ccc(Cl)cc1)N1CCOC(CCc2ccccc2)C1` (stereo not given), the inhibition was 16% (inactive). For `FC(F)(F)Oc1cccc(CN2CCOC(CCc3ccccc3)C2)c1` (stereo not given), the inhibition is 88%.

As for `O=S(=O)(c1ccc(F)cc1)N1CCOC(CCc2ccccc2)C1` (stereo not given), the inhibition is -8% (inactive). The value for `O=C(Nc1ccccc1Cl)N1CCOC(CCc2ccccc2)C1` (stereo not given) was 2% (inactive).

Turning to `O=C(Nc1ccc(F)cc1)N1CCOC(CCc2ccccc2)C1` (stereo not given), the inhibition was 5% (inactive). In the case of `O=C(c1ccccc1)N1CCOC(CCc2ccccc2)C1` (stereo not given) it was 5% (inactive); in that of `FC(F)(F)Oc1ccc(CN2CCO[C@H](CCc3ccccc3)C2)cc1`, 96%; in that of `c1ccc(CCC2CN(Cc3ccccc3)CCO2)cc1` (stereo not given), 74%.

Regarding `c1ccc(CCC2CN(Cc3cccnc3)CCO2)cc1` (stereo not given), the inhibition was 35% (inactive). The value for `Clc1ccc(CN2CCO[C@@H](CCc3ccccc3)C2)cc1` was 39% (inactive). Consider `c1ccc(CCC2CN(Cc3ccncc3)CCO2)cc1` (stereo not given), for which the inhibition is 13% (inactive).

`COc1ccc(NC(=O)N2CCOC(CCc3ccccc3)C2)cc1` (stereo not given): the inhibition is -2% (inactive).

For the compound `O=C(c1cc(F)c(F)c(F)c1)N1CCOC(CCc2ccccc2)C1` (stereo not given), the inhibition was 10% (inactive). In the case of `c1ccc(CCC2CN(c3ccc4ncccc4c3)CCO2)cc1` (stereo not given) it was 16% (inactive).

On to `O=S(=O)(c1ccccc1Cl)N1CCOC(CCc2ccccc2)C1` (stereo not given), for which the inhibition was 13% (inactive). In the case of `Cc1ccc(NC(=O)N2CCOC(CCc3ccccc3)C2)cc1` (stereo not given) it was 12% (inactive). In the case of `Cn1c(N2CCOC(CCc3ccccc3)C2)nc2ccccc21` (stereo not given) it was 17% (inactive); in that of `O=C(Nc1cccc(F)c1)N1CCOC(CCc2ccccc2)C1` (stereo not given), -11% (inactive).

On to `Cc1ccc(C(=O)N2CCOC(CCc3ccccc3)C2)cc1` (stereo not given), for which the inhibition is 17% (inactive). In the case of `Fc1cccc(F)c1CN1CCOC(CCc2ccccc2)C1` (stereo not given) it was 51%; in that of `COc1ccc(CN2CCO[C@H](CCc3ccccc3)C2)cc1`, 86%; in that of `O=S(=O)(c1ccccc1)N1CCOC(CCc2ccccc2)C1` (stereo not given), 2% (inactive). In the case of `O=C(c1cccnc1)N1CCOC(CCc2ccccc2)C1` (stereo not given) it was 18% (inactive); in that of `O=C(Nc1ccccc1F)N1CCOC(CCc2ccccc2)C1` (stereo not given), 4% (inactive); in that of `Cc1ccccc1NC(=O)N1CCOC(CCc2ccccc2)C1` (stereo not given), 15% (inactive). The value for `O=S(=O)(c1ccc2ccccc2c1)N1CCOC(CCc2ccccc2)C1` (stereo not given) was -3% (inactive). Regarding `Clc1ccc(CN2CCOC(CCc3ccccc3)C2)cc1` (stereo not given), the inhibition is 97%. In the case of `Cc1ccccc1CN1CCOC(CCc2ccccc2)C1` (stereo not given) it was 54%; in that of `FC(F)(F)Oc1ccc(CN2CCO[C@@H](CCc3ccccc3)C2)cc1`, 25% (inactive); in that of `CC(C)(C)c1ccc(S(=O)(=O)N2CCOC(CCc3ccccc3)C2)cc1` (stereo not given), 5% (inactive). Regarding `Clc1ccc(CN2CCO[C@H](CCc3ccccc3)C2)cc1`, the inhibition is 96%. The value for `O=C(c1ccc2c(c1)OCCO2)N1CCOC(CCc2ccccc2)C1` (stereo not given) was -4% (inactive); that for `COc1ccc(CN2CCOC(CCc3ccccc3)C2)cc1` (stereo not given) was 98%.

In the case of `O=S(=O)(c1ccccc1F)N1CCOC(CCc2ccccc2)C1` (stereo not given), the inhibition was 9% (inactive).

Take `O=S(=O)(c1ccccc1OC(F)(F)F)N1CCOC(CCc2ccccc2)C1` (stereo not given): the inhibition was 6% (inactive). In the case of `FC(F)(F)Oc1ccc(CN2CCOC(CCc3ccccc3)C2)cc1` (stereo not given) it was 94%. In the case of `Cc1cccc(S(=O)(=O)N2CCOC(CCc3ccccc3)C2)c1` (stereo not given) it was 13% (inactive); in that of `COc1ccc(C(=O)N2CCOC(CCc3ccccc3)C2)cc1` (stereo not given), -5% (inactive); in that of `O=C(Nc1ccccc1)N1CCOC(CCc2ccccc2)C1` (stereo not given), 3% (inactive).

With `c1ccc(CCC2CN(c3ccccc3)CCO2)cc1` (stereo not given), the inhibition is 5% (inactive). In the case of `Cc1ccc(N2CCOC(CCc3ccccc3)C2)cc1` (stereo not given) it was 6% (inactive); in that of `O=C(c1cccc(F)c1)N1CCOC(CCc2ccccc2)C1` (stereo not given), 1% (inactive). As for `O=C(c1ccc(Cl)cc1)N1CCOC(CCc2ccccc2)C1` (stereo not given), the inhibition is 7% (inactive).
